Where “and” joins values, the source holds several entries; their conditions need not be identical. Identical values can stand only once.
Assays:
Format in all cases: biochemical
human factor XIa [1] = target: T1, human factor XIa (Homo sapiens, UniProt P03951); assay: Direct inhibition of factor XIa, chromogenic substrate S-2366 hydrolysis assay
T1 construct: purchased Haematologic Technologies (Essex Junction, Vt.); host or cells: human plasma
Experimental: Solvent A consisted of 25 mM n-hexylamine in water containing 0.1% (v/v) formic acid, while solvent B consisted of 25 mM n-hexylamine in acetonitrile-water mixture (3:1 v/v) containing 0.1% (v/v) formic acid. […] The sample was first monitored for absorbance in the range of 190-400 nm and then directly introduced into the mass spectrometer. ESI-MS detection was performed in positive ion mode for which the capillary voltage was 4 kV, cone voltage was 20 V, desolvation temperature was 350° C. and nitrogen gas flow was maintained at 650 L/hr. Mass scans were collected in the range of 1000-2048 amu within 0.25 s and several of these added to enhanced signal-to-noise ratio. Direct Inhibition of Factor XIa. […] After 10 min incubation, 5 μL factor XIa substrate (345 μM) was rapidly added and the residual FXIa activity was measured from the initial rate of increase in absorbance at 405 nm. […] Relative residual FXIa activity at each concentration of the inhibitor was calculated from the ratio of FXIa activity in the presence and absence of the inhibitor. Logistic equation 1 was used to fit the dose-dependence of residual protease activity to obtain the potency (IC50) and efficacy (ΔY) of inhibition.
Direct Inhibition of Factor XIa by Sulfated QAOs was performed as described in Example 1.
The ability of the sulfated inositol analogs to inhibit factor XIa was studied using the in vitro assay described in Example 1. In this assay, the factor XIa enzyme is anticipated to hydrolyze a particular peptide linkage in the corresponding peptide substrate releasing p-nitroaniline which absorbs at wavelength of 405 nm giving a line slope corresponds to the enzyme activity. The line slope of no inhibitor status is considered as a reference slope and it depends on the relative concentrations of factor XIa enzyme and its substrate. Factor XIa enzyme concentration was decided to get appropriate reference slope of approximately 25-35, whereas the substrate concentration was set to be larger than its affinity to factor XIa enzyme under equilibrium condition, Km. In presence of potential factor XIa inhibitor, the enzyme capacity to hydrolyze the designated peptide linkage in the substrate gets diminished or completely abolished depending on the inhibitor concentration and efficacy. […] Such decreased slope reflects a drop in the catalytic enzyme activity of factor XIa.

Lys535Ala FXIa-CD = target: T2, Lys535Ala FXIa-CD (Homo sapiens, UniProt P03951, C500S/K553A); assay: 16S inhibition of Lys535Ala FXIa-CD; conditions: not shown
T2 construct: eliminating the bond allows the catalytic domain of FXIa (FXIa-CD) to separate from the heavy chain; made in house; host or cells: HEK-293
Excerpt: (§1) Mutagenesis and Expression of Recombinant Factor XIa. Mutations in the FXIa 170 helix were introduced into a modified human FXI cDNA (FXI-Ser-362,482), which contains serine substitutions for Cys362 and Cys482 (FXI numbering), as described earlier in several papers.^7,8 A disulfide bond between these residues connects the heavy chains and catalytic domains after cleavage at the activation site, and eliminating the bond allows the catalytic domain of FXIa (FXIa-CD) to separate from the heavy chain. The basic residues of the FXIa 170-helix, Lys529, Arg530, Arg532, Lys535 and Lys539 in the FXI numbering system (correspond to residues 170, 171, 173, 175 and 179 in the chymotrypsinogen numbering system), were changed to alanine individually and as a group using a Quick Change kit (Stratagene, La Jolla, Calif.). cDNAs in expression vector pJVCMV were used to transfect HEK-293 cells as described. Stably expressing clones were expanded in 175 cm^2 flasks, and serum free media (Cellgro Complete, Mediatech, Herndon, Va.) was collected every 48 hours, supplemented with benzamidine (5 mM) and stored at −80° C. pending purification. Recombinant FXI was purified from conditioned media on an anti-fXI IgG 1G5.12 affinity column. […] Protein containing fractions were pooled, concentrated and dialyzed, and protein concentrations were determined by dye-binding assay (Bio-Rad). […]

Lys539Ala FXIa-CD = target: T3, Lys539Ala FXIa-CD (Homo sapiens, UniProt P03951, C500S/K557A); assay: 16S inhibition of Lys539Ala FXIa-CD; conditions: not shown
T3 construct: eliminating the bond allows the catalytic domain of FXIa (FXIa-CD) to separate from the heavy chain; made in house; host or cells: HEK-293
Excerpt: as §1

human factor XIa [2] = target: T1, human factor XIa; assay: Direct inhibition of factor XIa, chromogenic substrate S-2366 hydrolysis assay; conditions: FXIa-WT, 16S plus 30 μM polybrene
human plasma [3] = assay: Prothrombin time (PT) plasma clotting assay; conditions: concentration doubling clotting time
Experimental: (§2) Plasma clotting assays, prothrombin and activated partial thromboplastin time (PT and APTT, respectively), are routinely used to assess the anticoagulation potential of new enzyme inhibitors in an in vitro setting. Whereas PT measures the effect of an inhibitor on the extrinsic pathway of coagulation, APTT measures the effect on the intrinsic pathway.
(§3) Prothrombin Time (PT) and Activated Partial Thromboplastin Time (APTT) were assessed as described in Example 1.

[4] = target: T4, recombinant wild type FXIa catalytic domain (FXIa-CD) (Homo sapiens, UniProt P03951, C500S); assay: 16S inhibition of recombinant FXIa catalytic domain, S2366 hydrolysis
T4 construct: eliminating the bond allows the catalytic domain of FXIa (FXIa-CD) to separate from the heavy chain; made in house; host or cells: HEK-293
Excerpt: (§4) FIG. 15. […] Solid lines represent sigmoidal dose-response fits.
(§5) Mutagenesis and Expression of Recombinant Factor XIa. Mutations in the FXIa 170 helix were introduced into a modified human FXI cDNA (FXI-Ser-362,482), which contains serine substitutions for Cys362 and Cys482 (FXI numbering), as described earlier in several papers.^7,8 A disulfide bond between these residues connects the heavy chains and catalytic domains after cleavage at the activation site, and eliminating the bond allows the catalytic domain of FXIa (FXIa-CD) to separate from the heavy chain. The basic residues of the FXIa 170-helix, Lys529, Arg530, Arg532, Lys535 and Lys539 in the FXI numbering system (correspond to residues 170, 171, 173, 175 and 179 in the chymotrypsinogen numbering system), were changed to alanine individually and as a group using a Quick Change kit (Stratagene, La Jolla, Calif.). cDNAs in expression vector pJVCMV were used to transfect HEK-293 cells as described. Stably expressing clones were expanded in 175 cm^2 flasks, and serum free media (Cellgro Complete, Mediatech, Herndon, Va.) was collected every 48 hours, supplemented with benzamidine (5 mM) and stored at −80° C. pending purification. Recombinant FXI was purified from conditioned media on an anti-fXI IgG 1G5.12 affinity column. After loading, the column was washed with 25 mM Tris-HCl, pH 7.4, 100 mM NaCl, and eluted with 2M NaSCN in the same buffer. Protein containing fractions were pooled, concentrated and dialyzed, and protein concentrations were determined by dye-binding assay (Bio-Rad). Recombinant wild-type FXI or FXI-CD (˜200-300 μg/ml) was activated with 5 μg/ml FXIIa at 37° C. Completion of activation was confirmed by SDS-PAGE. Activated preparations were passed over a 1G5.12 column to separate the protease from FXIIa. In the case of proteins prepared in FXI-Ser-362,482, the catalytic domains bind to the column, while the heavy chain passes through.
(§6) Heparin binds to FXIa in two sites—in the A3 domain (Lys252, Lys253, and Lys255) and in the catalytic domain (Lys529, Arg530, Arg532, Lys535, and Lys539). […]

[5] = target: T5, Arg530Ala FXIa-CD single mutant (Homo sapiens, UniProt P03951, C500S/R548A); assay: 16S inhibition of Arg530Ala FXIa-CD, S2366 hydrolysis; conditions: Arg530 replaced by Ala
T5 construct: eliminating the bond allows the catalytic domain of FXIa (FXIa-CD) to separate from the heavy chain; made in house; host or cells: HEK-293
Excerpt: as §4
as §1, with “purification.” for “purification. Recombinant FXI was purified from conditioned media on an anti-fXI IgG 1G5.12 affinity column.”

human plasma [6] = assay: Activated partial thromboplastin time (APTT) plasma clotting assay; conditions: human plasma, concentration doubling clotting time
Experimental: as §2, §3

[7] = target: T6, Lys529Ala,Arg530Ala,Arg532Ala FXIa-CD triple mutant (Homo sapiens, UniProt P03951, C500S/K547A/R548A/R550A); assay: 16S inhibition of triple mutant FXIa-CD, S2366 hydrolysis
T6 construct: eliminating the bond allows the catalytic domain of FXIa (FXIa-CD) to separate from the heavy chain; made in house; host or cells: HEK-293
Excerpt: as §4, §5, §6

T1 sequence (P03951 19-387 limits assumed): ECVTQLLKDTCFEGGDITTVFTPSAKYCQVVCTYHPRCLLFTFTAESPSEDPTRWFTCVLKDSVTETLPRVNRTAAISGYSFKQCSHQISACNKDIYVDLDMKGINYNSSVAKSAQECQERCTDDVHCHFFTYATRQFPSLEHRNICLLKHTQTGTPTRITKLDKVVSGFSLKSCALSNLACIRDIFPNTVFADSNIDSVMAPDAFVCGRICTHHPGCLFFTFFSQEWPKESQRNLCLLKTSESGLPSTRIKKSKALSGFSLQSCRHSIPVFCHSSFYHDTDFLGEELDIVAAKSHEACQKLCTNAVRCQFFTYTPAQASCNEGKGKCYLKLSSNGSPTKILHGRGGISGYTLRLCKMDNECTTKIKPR
T1 sequence (P03951 388-625 limits assumed): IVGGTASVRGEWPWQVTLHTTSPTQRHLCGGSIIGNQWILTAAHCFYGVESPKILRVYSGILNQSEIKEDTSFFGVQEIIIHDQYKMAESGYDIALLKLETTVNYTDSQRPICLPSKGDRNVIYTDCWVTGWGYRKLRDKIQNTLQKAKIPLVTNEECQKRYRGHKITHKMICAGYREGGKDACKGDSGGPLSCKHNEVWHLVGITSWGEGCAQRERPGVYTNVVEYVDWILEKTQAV
T4 sequence (P03951 388-625 C500S): as the sequence (P03951 388-625 limits assumed) above, with C113S counted along it
T6 sequence (P03951 388-625 C500S/K547A/R548A/R550A): as the sequence (P03951 388-625 limits assumed) above, with C113S, K160A, R161A, R163A counted along it
T5 sequence (P03951 388-625 C500S/R548A): as the sequence (P03951 388-625 limits assumed) above, with C113S, R161A counted along it
T3 sequence (P03951 388-625 C500S/K557A): as the sequence (P03951 388-625 limits assumed) above, with C113S, K170A counted along it
T2 sequence (P03951 388-625 C500S/K553A): as the sequence (P03951 388-625 limits assumed) above, with C113S, K166A counted along it

proteolytic activity in the presence of 16S (human factor XIa [1]; full length wild-type FXIa, no polybrene): approximately 4%
ΔY % (efficacy) (human factor XIa [1]; sulfated QAOs): 97 ± 1%
IC50 (human factor XIa [1]; sulfated QAOs, pH 7.4, 37° C., read-out: IC50 (converted)): ~50 µM and 52 µM
change in IC50 from wild-type FXIa-CD (Lys535Ala FXIa-CD): no change in IC50
change in IC50 from wild-type FXIa-CD (Lys539Ala FXIa-CD): no change in IC50
inhibition level after addition of polybrene (human factor XIa [2]): 9.2±1.0%
inhibition level after addition of polybrene ([4]; FXIa-CD, 16S plus 30 μM polybrene): 13.1±0.7%
proteolytic activity in the presence of 16S ([4]; FXIa-CD, no polybrene): ~6%
inhibition of FXIa-CD compared with wild-type enzyme ([4]; not shown): as potently as the wild-type enzyme
increase in IC50 versus FXIa-CD [5]: 2 fold
proteolytic activity in the presence of 16S ([7]; FXIa-CD triple mutations, no polybrene): ~5%
inhibition level after addition of polybrene ([7]; FXIa-CD with triple mutations, 16S plus 30 μM polybrene): 7.1±1.2%
reduction of potency versus FXIa-CD ([7]; Lys529, Arg530 and Arg532 replaced by Ala): approximately 5 fold
SMILES: O=c1c2ccccc2nc(-c2ccc(OS(=O)(=O)O)cc2)n1CCCCCCn1cc(Cn2c(-c3ccc(OS(=O)(=O)O)cc3)nc3ccccc3c2=O)nn1 [Inhibitor 16S]
2 × PT (human plasma [3]): >2000 µM
2 × APTT (human plasma [6]): 950 µM

From patent US9758459B2, “Allosteric modulators of factor XIa as anticoagulant agents” (VIRGINIA COMMONWEALTH UNIVERSITY, priority 2012, dated 2017)
